Results taken from US10376486B2, “Compositions and methods for reactivating latent viral infections” (priority 2014, dated 2019).
Entries after “also recorded” stand apart in the source; their conditions may differ.

Key:
[1] = test system: PEP005-induced HIV reactivation in J-Lat A1 cells; test: Suppression of PEP005-induced HIV reactivation in J-Lat A1 cells (GFP expression by RT-qPCR); assay type: cell-based; conditions: 6 nM PEP005, PKC inhibitor 1, 2 or 5 μM, Bay 11-7082 2.5 μM
Description: FIG. 4: PEP005-induced HIV reactivation is mediated through PKCδ/θ-IκBα/ε-NF-κB signaling. (A) PEP005-induced HIV reactivation is suppressed by inhibition of the PKCδ/θ. J-Lat A1 cells were treated with 6 nM of PEP005 in the presence of 1, 2 or 5 μM of PKC inhibitor (PKCθ/δ inhibitor; Milipore/Calbiochem (539649)) and evaluated for GFP expression by RT-qPCR. (B) NF-κB inhibition partially suppresses PEP005-induced HIV reactivation in J-Lat A1 cells. J-Lat A1 cells were treated with 6 nM of PEP005 in the presence of 2.5 μM Bay 11-7082, an NF-κB inhibitor, and were evaluated for GFP expression by RT-qPCR. (C) J-Lat A1 cells were treated with PEP005 or alternatively with PKC inhibitor alone or in the presence of PEP005 and the relative binding of NF-κB to the HIV LTR was determined using ChIP-qPCR.
Real-time PCR analysis of GFP or HIV gene expression: Total RNA was isolated from J-Lat A1 cells or U1 cells using the RNeasy Kit (Qiagen) followed by digestion with DNase I (Invitrogen). First strand cDNA was synthesized using Superscript II (Invitrogen). Real-time PCR (TaqMan) was performed on a ViiA 7 detector using the following primer/probe set: for J-Lat A1 cells, primer 1: 5′-[…]-3′ (SEQ ID NO:5), primer 2: 5′-[…]-3 ‘ (SEQ ID NO:6), probe 5’-FAM CTACAAGACCC G[…]-3′ (SEQ ID NO:7), for U1 cells HIV 5′ LTR primers/probe were used (see above). […]

[2] = test system: latent HIV in J-Lat A1 cells; test: HIV latency reactivation in J-Lat A1 cells (GFP expression by flow cytometry); assay type: cell-based; conditions: GFP, 24 h, PEP005 2-40 nM, GSK343 2 μM
Description: FIG. 1: PEP005 induces reactivation of HIV latency in vitro. J-Lat A1 cells were exposed to different concentrations of PEP005 and virus reactivation was measured by GFP expression using flow cytometry. Cell viability was determined by Live/Dead dye staining. (A) Chemical Structure of PEP005. […] (D) PEP005 potently reactivates latent HIV in cell lines compared with other LRAs. J-Lat A1 cells were treated with 10 nM PEP005, 500 nM SAHA, 2 μM JQ1, 2 μM GSK343, 10 ng/ml TNF, 2 μM Prostratin, or 5 ng/ml PMA for 24 hours and the percentage of GFP expression was evaluated using flow cytometry. *, p<0.05; **, p<0.01.
FIG. 2: PEP005 synergizes with other latency reversing agents in reactivating latent HIV. (A) J-Lat A1 cells were treated with 5 ng/ml PMA, 6 nM PEP005, 500 nM SAHA, 2 μM JQ1, 2 μM GSK343, or 10 μM Prostratin alone or in combination with 6 nM PEP005 for 24 hours and the percentage of GFP expressing cells was determined using flow cytometry. **, p<0.01; *, p<0.05 compared with control treatment; **, p<0.01; *, p<0.05 compared with PEP005 treatment alone. (B) The U1 cells were treated with 5 ng/ml PMA, 6 nM PEP005, 500 nM SAHA, 2 μM JQ1, or 2 μM GSK343, alone or in combination with 6 nM PEP005 for 24 hours and the HIV transcription was evaluated using RT-qPCR. Numbers indicate fold-increase over the control. **, p<0.01; *, p<0.05 compared with control treatment; **, p<0.01; *, p<0.05 compared with PEP005 treatment alone. […] The Bliss independence model was utilized for calculation of synergy for LRA combinations. Dotted horizontal line signifies pure additive effect (Δfaxy=0). Synergy is defined as Δfaxy>0 while Δfaxy<0 indicates antagonism. Statistical significance was determined using a one tailed ratio t-test comparing predicted and observed drug combination effects. *p<0.05; **p<0.01.
J-Lat A1 cells (harboring a single copy of latent HIV LTR and one copy of green fluorescent protein gene under the HIV LTR control) or U1 cells (harboring two latent HIV genomes with defective Tat gene) were cultured in RPMI1640 medium with 10% fetal bovine serum (FBS) and 1% Pen/strep in a 37° C. incubator containing 5% CO2 [24,31]. Both of the cell lines were obtained from NIH AIDS Reagent Program. For reactivation of HIV LTR, cells were treated with PMA (Sigma), JQ1 (Biovision), Prostatin (Sigma), SAHA (Santa Cruz), TNF-α (BD), GSK343 (Sigma), or PEP005 (Tocris Bioscience) for 24 h. HIV reactivation was quantified by GFP expression using flow cytometry and the data were analyzed using FlowJo Software for J-Lat A1 cells, or by quantitative RT-PCR (RT-qPCR) for J-Lat A1 and U1 cells. Cell viability was evaluated using Live/Dead dye (Life Technologies) by flow cytometry. So far, there is not a single in vitro cell culture model available that captures all the features of HIV latency. However, PKC agonists seem to reactivate latent HIV in all the cell culture models of viral latency. Similar to other J-Lat cell lines, the J-Lat A1 clone has been widely used by researchers for HIV latency studies. The T-cell-derived J-Lat A1 cells harbor one copy of a construct containing a Tat and a green fluorescent protein (GFP) gene framed by the 5′ and 3′ HIV LTR [32]. The J-Lat A1 cells also contain the TAR loop located within the R region of HIV LTR (nt +1 to +60), which provides an opportunity for Tat-TAR interactions for the modulation of transcription and transcriptional elongation. […]

[3] = test system: PKCδ/θ-IκBα/ε-NF-κB signaling; conditions: IngB treatment; cited from earlier work

Cc1ccc(S(=O)(=O)/C=C/C#N)cc1 [Bay-11-7082]
reduction of PEP005-induced latent HIV reactivation [1]: approximately 50%

CCCc1cc(C)[nH]c(=O)c1CNC(=O)c1cc(-c2ccnc(N3CCN(C)CC3)c2)cc2c1cnn2C(C)C [GSK343]
induction of HIV expression, agent alone [2]: failed to induce HIV expression; also recorded: could not effectively induce HIV expression; also recorded: no capacity to reactivate latent HIV by itself

CCCCCC(=O)O[C@H]1C(C)=C[C@]23C(=O)[C@@H](C=C(CO)[C@@H](O)[C@]12O)[C@H]1[C@@H](C[C@H]3C)C1(C)C [IngB, ingenol-3-hexanoate]
expression of NF-κB/p65 protein, earlier report [24] [3]: increased expression of NF-κB/p65 protein
